# Target: HIV Reverse Transcriptase (HIV-RT) (Human immunodeficiency virus type 1 group M subtype B, UniProt P04585)
# Assay: primer extension assay using HIV Reverse Transcriptase after dry-storage of the inhibitor, read out by FCS
# Type: biochemical
# Conditions: stored in a desiccator overnight at room-temperature, reaction 40°C, 2 min
# Experimental: The method, according to claim 1 was used for a primer extension assay using HIV Reverse Transcriptase (HIV-RT). Precoating the assay plate: 1 µl aliquots of 0.1% (w/v) aqueous solution of HBC (2-hydroxypropyl-β-cyclodextrin) was pipetted into the wells of a nanotiter plate and subjected to a flow of nitrogen gas until all the solvent (water) was evaporated. […] As a control, a section of the nanotiter plate was not coated with HBC. The plate was subsequently loaded with 1 µl (1 mg/ml) of the HIV Reverse Transcriptase Inhibitor AZT (3'Azido-3'deoxythymidine) contained in 50 mM DMSO/ 10 mM NaCl. The solvent (DMSO/water) evaporated by exposure to a flow of nitrogen gas at room-temperature. As a control, some wells of the nanotiter plate (coated and non-coated) were not charged with AZT. The plates were stored in a desiocator overnight at room-temperature.
# The primer extension assay was performed by pipetting 900 nanoliter of a reaction mix containing: 2 pmol TMR-lablled 20 base oligo deoxynucleotide anneald to a 200 base RNA-template (gag region of the HIV genome), 50 mM Tris-HCl pH 8.2, dissolved, 50 mM NaCl, 1 mM of each dNTP. The nanotiter plate was incubated at 40°C for 2 min and the extension reaction stopped by the addition of 100 nanoliter 0.5 M EDTA. The primer extension products were analyzed by FCS.
# • 1. […]
smiles,measurement,setting,value
"Cc1cn([C@H]2C[C@H](N=[N+]=[N-])[C@@H](CO)O2)c(=O)[nH]c1=O [AZT, 3'Azido-3'deoxythymidine]",Primer extension,AZT 1 µl (1 mg/ml) dried in nanotiter plate wells not coated with HBC,only partially inhibited
same,Primer extension,AZT 1 µl (1 mg/ml) dried in nanotiter plate wells precoated with HBC (1 µl of 0.1% w/v),inhibited

# — patent publication EP0947820A2, “Method for sample preparation” (Evotec BioSystems GmbH, priority 1998, dated 1999)
